Test systems include BT-549 breast; CAKI-1 renal; DU-145 prostate; HCT-116 colon; HOP-62 NSCLC; HOP-92 NSCLC; K-562 leukemia; OVCAR-4 ovarian; SK-OV-3 ovarian; UACC-257 melanoma.
What all share (assay): growth of human tumour cells (NCI), 48 h

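Following 48 hours of exposure in 96-well plates, responses at five concentrations were used to interpolate endpoints linearly. At the GI50, growth is halved. Definition used: TGI = concentration required for complete inhibition of growth.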

Take `CSc1nc2ccccc2c(=O)n1/N=C1\C(=O)N(CN2CCOCC2)c2ccc(Cl)cc21`: the TGI in the experiment with BT-549 breast was 93.8 µM; with CAKI-1 renal it was more than 100 µM; in the experiment with DU-145 prostate it was 63.6 µM; with HCT-116 colon, more than 100 µM; with HOP-62 NSCLC it was more than 100 µM; with HOP-92 NSCLC, more than 100 µM. The TGI with K-562 leukemia is more than 100 µM; with OVCAR-4 ovarian, more than 100 µM; in the experiment with SK-OV-3 ovarian it was more than 100 µM; in the experiment with UACC-257 melanoma, 51.2 µM.

On to `CC/C(Cl)=N\OC(=O)Nc1ccc(OC)cc1`, for which the TGI with BT-549 breast is 3.17 µM; in the experiment on CAKI-1 renal, 3.07 µM; with DU-145 prostate, 31.3 µM; in the experiment on HCT-116 colon it was 12 µM; in the experiment with HOP-62 NSCLC, 30.3 µM; in the experiment on HOP-92 NSCLC, 5.98 µM. Moreover, the TGI in the experiment on K-562 leukemia was more than 100 µM; in the experiment on OVCAR-4 ovarian it was 30.3 µM; with SK-OV-3 ovarian it was 31.7 µM; with UACC-257 melanoma, 30.2 µM.

Take `O=C1COC(c2ccccc2O)=NN1CCCN1CCCC1`: the TGI with BT-549 breast, in the experiment with CAKI-1 renal, with DU-145 prostate, in the experiment on HCT-116 colon, with HOP-62 NSCLC and in the experiment with HOP-92 NSCLC was more than 100 µM in each case. Moreover, the TGI with OVCAR-4 ovarian, with SK-OV-3 ovarian and in the experiment on UACC-257 melanoma was more than 100 µM each time.

Consider `COc1cc(Oc2nc3ccccc3nc2C(=O)O)cc(OC)c1OC`, for which the TGI in the experiment with BT-549 breast, with CAKI-1 renal, with DU-145 prostate, with HCT-116 colon, in the experiment with HOP-62 NSCLC and in the experiment on HOP-92 NSCLC was more than 100 µM throughout. Further, the TGI in the experiment with K-562 leukemia, in the experiment with OVCAR-4 ovarian, with SK-OV-3 ovarian and with UACC-257 melanoma was more than 100 µM in each case.

Consider `Nc1ccc2c(c1)C1Oc3ccccc3CC1CO2` (stereo not drawn), for which the TGI with BT-549 breast, in the experiment on CAKI-1 renal, in the experiment with DU-145 prostate, with HCT-116 colon, in the experiment with HOP-62 NSCLC and in the experiment with HOP-92 NSCLC was more than 100 µM each time. Besides, the TGI in the experiment with K-562 leukemia, in the experiment on SK-OV-3 ovarian and in the experiment with UACC-257 melanoma was more than 100 µM each time.

As to `CC(C)(C)c1cc(C(O)(C(=O)O)C(=O)O)cc(C(C)(C)C)c1O`, the TGI with BT-549 breast, in the experiment with CAKI-1 renal, with DU-145 prostate, in the experiment on HCT-116 colon, with HOP-62 NSCLC and with HOP-92 NSCLC was more than 100 µM throughout. Further, the TGI in the experiment with K-562 leukemia, with OVCAR-4 ovarian, in the experiment with SK-OV-3 ovarian and in the experiment on UACC-257 melanoma was more than 100 µM each time.

For the compound `Cc1cc(O)c(C(C)C)cc1NC(=O)Nc1cccc2ccccc12`, the TGI in the experiment with BT-549 breast was 36.1 µM; in the experiment on CAKI-1 renal, 30.7 µM; with DU-145 prostate, 28.3 µM; in the experiment with HCT-116 colon, 36.6 µM; with HOP-62 NSCLC, 30.9 µM; in the experiment with HOP-92 NSCLC, 40.8 µM. Also, the TGI in the experiment with K-562 leukemia was more than 100 µM; with OVCAR-4 ovarian, 24.4 µM; in the experiment on UACC-257 melanoma, 33.4 µM.

On to `COc1cc(C2c3cc4c(cc3C(O)C3CCC(=O)N23)OCO4)cc(OC)c1OC` (stereo not drawn), for which the TGI in the experiment on BT-549 breast was 66.1 µM; with CAKI-1 renal, more than 100 µM; with DU-145 prostate, more than 100 µM; in the experiment with HCT-116 colon, more than 100 µM; in the experiment on HOP-62 NSCLC, more than 100 µM; in the experiment with HOP-92 NSCLC it was more than 100 µM. For the same compound, the TGI in the experiment with K-562 leukemia, in the experiment on SK-OV-3 ovarian and in the experiment on UACC-257 melanoma was more than 100 µM each time.

For the compound `CC(=O)Nc1ccc(S(=O)(=O)Nc2nnc(S(N)(=O)=O)s2)cc1`, the TGI with BT-549 breast, with CAKI-1 renal, in the experiment with DU-145 prostate, in the experiment with HCT-116 colon, in the experiment with HOP-92 NSCLC and in the experiment with OVCAR-4 ovarian was more than 100 µM each time. This compound also yielded a TGI in the experiment with SK-OV-3 ovarian of more than 100 µM.

On to `COc1ccc(/C=N\N2CC(=O)N3C4C=CC(CC4)N3C2=O)cc1` (stereo not drawn), for which the TGI in the experiment with BT-549 breast, in the experiment on CAKI-1 renal, in the experiment on DU-145 prostate, with HCT-116 colon, in the experiment on HOP-62 NSCLC and in the experiment with HOP-92 NSCLC was more than 100 µM in each case. For the same compound, the TGI in the experiment on K-562 leukemia, in the experiment with SK-OV-3 ovarian and in the experiment with UACC-257 melanoma was more than 100 µM in each case.

Regarding `CCOC(=O)C1=CN=C2C(=O)N(c3ccccc3)N(C)C2(C)C1=N` (stereo not drawn), the TGI with BT-549 breast, with CAKI-1 renal, in the experiment on DU-145 prostate, with HCT-116 colon, with HOP-92 NSCLC and in the experiment with K-562 leukemia was more than 100 µM in each case. Also, the TGI in the experiment on OVCAR-4 ovarian, in the experiment on SK-OV-3 ovarian and in the experiment on UACC-257 melanoma was more than 100 µM in each case.

As to `COc1ccc2oc(S(=O)(=O)N3CC(CCl)c4ccc([N+](=O)[O-])cc43)cc2c1` (stereo not drawn), the TGI in the experiment on BT-549 breast was 16.4 µM; with CAKI-1 renal, 0.239 µM; with DU-145 prostate, 0.317 µM; in the experiment on HCT-116 colon it was 4.22 µM; with HOP-92 NSCLC, more than 73.8 µM; in the experiment with K-562 leukemia it was 0.285 µM. Also, the results for the TGI in the experiment on OVCAR-4 ovarian, in the experiment with SK-OV-3 ovarian and in the experiment with UACC-257 melanoma were more than 100 µM, 4.83 µM and more than 32.1 µM, respectively.

`C(=N\Nc1ncc(-c2cc3cc4c(cc3o2)OCO4)s1)/c1c[nH]c2ccccc12`: the GI50 in the experiment on BT-549 breast was 1.32 µM; in the experiment on CAKI-1 renal it was 1.18 µM; in the experiment on DU-145 prostate it was 0.739 µM; in the experiment on HCT-116 colon, 2.13 µM; in the experiment with HOP-62 NSCLC, 1.6 µM; in the experiment with HOP-92 NSCLC, 1.49 µM. Moreover, the results for the GI50 in the experiment with K-562 leukemia, with OVCAR-4 ovarian and with UACC-257 melanoma were 0.382 µM, 0.503 µM and 2.57 µM, respectively. Further, the TGI was 7.55 µM in the experiment on BT-549 breast; 3.21 µM in the experiment on CAKI-1 renal; 3.31 µM with DU-145 prostate; 10.2 µM in the experiment with HCT-116 colon; 7.95 µM in the experiment with HOP-62 NSCLC; 5.34 µM in the experiment on HOP-92 NSCLC. In addition, the figures for the TGI with K-562 leukemia, in the experiment with OVCAR-4 ovarian and with UACC-257 melanoma were more than 100 µM, 4.1 µM and 7.77 µM, respectively.
